In patent US6211214A, “Biphenyl ether oxazolines and their use as pest-control agents” (Bayer Aktiengesellschaft, priority 1995, dated 2001) one finds chromatographic logP data, which are given here for 54 compounds.

A short description of the data set: log p (partition coefficient octanol/water, determined experimentally from reversed phase HPLC). To be noted: reversed phase hplc. It counts as physicochemical. The source says:
[log p=logarithm of the partition coefficient p of the substance between the solvents octanol and water, determined experimentally from reversed phase HPLC]

In general, chromatographic logP refers to a lipophilicity value derived from retention on a column. A low value points to lower lipophilicity. In the case of `CON=C(COc1ccc(-c2ccc(C3COC(c4c(F)cccc4F)=N3)cc2)cc1)c1ccc(C)cc1` (stereo not shown) [Example 133], the chromatographic logP reads like this: (A isomer) 5.07; (B isomer) 5.35.

Compound `CCCC(C#N)Oc1ccc(-c2ccc(C3COC(c4c(F)cccc4F)=N3)cc2)cc1Cl` (stereo not shown) [Example 91] had a chromatographic logP of 4.87.

`CON=C(COc1ccc(-c2ccc(C3COC(c4c(F)cccc4F)=N3)cc2)cc1)c1ccc(C(F)(F)F)cc1` (stereo not shown) [Example 111] had a chromatographic logP of 5.53.

Compound `CCN(CC)C(=O)COc1ccc(-c2ccc(C3COC(c4c(F)cccc4F)=N3)cc2)cc1` (stereo not shown) [Example 15] showed a chromatographic logP of 3.35.

`CC(=O)C(C)(C)Oc1ccc(-c2ccc(C3COC(c4ccccc4Cl)=N3)cc2)cc1Cl` (stereo not shown) [Example 173] registered a chromatographic logP of 5.02.

Regarding `CON=C(COc1ccc(-c2ccc(C3COC(c4c(F)cccc4F)=N3)cc2)cc1)c1ccc(CC(C)C)cc1` (stereo not shown) [Example 154], the chromatographic logP is, setting by setting: (A isomer) 6.34; (B isomer) 6.05.

With `CON=C(COc1ccc(-c2ccc(C3COC(c4c(F)cccc4F)=N3)cc2)cc1)C1CC1` (stereo not shown) [Example 26], the chromatographic logP by setting is: (A isomer) 4.9; (B isomer) 4.56.

`CC(C)C(C#N)Oc1ccc(-c2ccc(C3COC(c4c(F)cccc4F)=N3)cc2)cc1` (stereo not shown) [Example 17]: the chromatographic logP came to 4.45.

As for `CON=C(COc1ccc(-c2ccc(C3COC(c4c(F)cccc4F)=N3)cc2)cc1)c1cc(Cl)ccc1Cl` (stereo not shown) [Example 191], the chromatographic logP runs as follows: (A isomer) 5.62; (B isomer) 5.44.

`C=CCON=C(C)COc1ccc(-c2ccc(C3COC(c4ccccc4Cl)=N3)cc2)cc1` (stereo not shown) [Example 142] had a chromatographic logP (A isomer) of 5.12 and a chromatographic logP (B isomer) of 5.2.

As to `CCOC(=O)C(C)Oc1ccc(-c2ccc(C3COC(c4c(F)cccc4F)=N3)cc2)cc1` (stereo not shown) [Example 3, 2-(2,6-difluorophenyl)-4-[4'-(1-ethoxycarbonyl-eth-1-yl-oxy)-biphenyl-4-yl]-1,3-oxazoline], the chromatographic logP was 4.12.

`CC(=NOC(C)C)C(C)Oc1ccc(-c2ccc(C3COC(c4c(F)cccc4F)=N3)cc2)cc1Cl` (stereo not shown) [Example 146]: the chromatographic logP was 5.87 (A isomer) and 6 (B isomer).

The compound `CON(C)C(=O)COc1ccc(-c2ccc(C3COC(c4c(F)cccc4F)=N3)cc2)cc1` (stereo not shown) [Example 34] gave a chromatographic logP of 3.07.

With `CCON=C(COc1ccc(-c2ccc(C3COC(c4c(F)cccc4F)=N3)cc2)cc1)C1CC1` (stereo not shown) [Example 56], the chromatographic logP is, setting by setting: (A isomer) 5.28; (B isomer) 4.92.

For `CCON=C(COc1ccc(-c2ccc(C3COC(c4c(F)cccc4F)=N3)cc2)cc1)C(C)(C)C` (stereo not shown) [Example 79], the chromatographic logP amounted to 5.95.

On to `CCON=C(COc1ccc(-c2ccc(C3COC(c4c(F)cccc4F)=N3)cc2)cc1)c1ccc(OC)cc1` (stereo not shown) [Example 150], for which the chromatographic logP reads like this: (A isomer) 5.04; (B isomer) 5.27.

Consider `CC(=O)C(C)(C)Oc1ccc(-c2ccc(C3COC(c4c(F)cccc4F)=N3)cc2)cc1Cl` (stereo not shown) [Example 153], for which the chromatographic logP was found to be 4.61.

Regarding `CCON=C(COc1ccc(-c2ccc(C3COC(c4c(F)cccc4F)=N3)cc2)cc1)C(C)C` (stereo not shown) [Example 78], the chromatographic logP (A isomer) was 5.72 and the chromatographic logP (B isomer) worked out at 5.49.

`CON=C(C)C(C)(C)Oc1ccc(-c2ccc(C3COC(c4c(F)cccc4Cl)=N3)cc2)cc1` (stereo not shown) [Example 160] had a chromatographic logP of 5.45.

For the compound `CC(COc1ccc(-c2ccc(C3COC(c4c(F)cccc4F)=N3)cc2)cc1)=NOC(C)C` (stereo not shown) [Example 80], the chromatographic logP reads like this: (A isomer) 5.1; (B isomer) 5.17.

With `CCCCC(Oc1ccc(-c2ccc(C3COC(c4c(F)cccc4F)=N3)cc2)cc1)C(=O)OCC` (stereo not shown) [Example 61], the chromatographic logP was found to be 5.24.

Consider `CON=C(COc1ccc(-c2ccc(C3COC(c4c(F)cccc4F)=N3)cc2)cc1)c1cccc(C(F)(F)F)c1` (stereo not shown) [Example 121], for which the chromatographic logP came out at 5.8 (A isomer) and 4.49 (B isomer).

For the compound `CC(=NO)C(C)Oc1ccc(-c2ccc(C3COC(c4c(F)cccc4F)=N3)cc2)cc1` (stereo not shown) [Example 64], the chromatographic logP is, setting by setting: (A isomer) 3.48; (B isomer) 3.54.

As to `CCON=C(C)C(C)Oc1ccc(-c2ccc(C3COC(c4ccccc4Cl)=N3)cc2)cc1` (stereo not shown) [Example 59], the chromatographic logP amounted to 5.44 (A isomer) and 5.56 (B isomer).

Consider `CON=C(COc1ccc(-c2ccc(C3COC(c4c(F)cccc4Cl)=N3)cc2)cc1)c1ccccc1` (stereo not shown) [Example 94], for which the chromatographic logP came out at 5.25.

With `O=C(COc1ccc(-c2ccc(C3COC(c4c(F)cccc4F)=N3)cc2)cc1)c1cc(Cl)ccc1Cl` (stereo not shown) [Example 132], the chromatographic logP turned out to be 4.78.

Consider `CON=C(COc1ccc(-c2ccc(C3COC(c4c(F)cccc4F)=N3)cc2)cc1)c1ccc(OC)cc1` (stereo not shown) [Example 149], for which the chromatographic logP is 4.7 (A isomer) and 4.91 (B isomer).

With `CON=C(COc1ccc(-c2ccc(C3COC(c4c(F)cccc4F)=N3)cc2)cc1)C1(Cl)CC1` (stereo not shown) [Example 55], the chromatographic logP is 5.09 (A isomer) and 4.78 (B isomer).

In the case of `CCON=C(COc1ccc(-c2ccc(C3COC(c4c(F)cccc4F)=N3)cc2)cc1)c1cc(Cl)ccc1Cl` (stereo not shown) [Example 192], the chromatographic logP is, setting by setting: (A isomer) 6; (B isomer) 5.79.

Take `CCON=C(COc1ccc(-c2ccc(C3COC(c4c(F)cccc4F)=N3)cc2)cc1)c1ccc(CC(C)C)cc1` (stereo not shown) [Example 155]: the chromatographic logP by setting is: (A isomer) 6.7; (B isomer) 6.36.

Take `CCON=C(C)C(C)Oc1ccc(-c2ccc(C3COC(c4ccccc4Cl)=N3)cc2)cc1Cl` (stereo not shown) [Example 144]: the chromatographic logP (A isomer) amounted to 5.83 and the chromatographic logP (B isomer) is 6.01.

On to `CC(=NOC(C)C)C(C)Oc1ccc(-c2ccc(C3COC(c4ccccc4Cl)=N3)cc2)cc1` (stereo not shown) [Example 136], for which the chromatographic logP is, setting by setting: (A isomer) 5.88; (B isomer) 6.02.

The compound `CC(COc1ccc(-c2ccc(C3COC(c4c(F)cccc4F)=N3)cc2)cc1)=NOCc1ccccc1` (stereo not shown) [Example 82] returned a chromatographic logP (A isomer) of 5.15.

As to `CC(COc1ccc(-c2ccc(C3COC(c4ccccc4Cl)=N3)cc2)cc1)=NOC(C)C` (stereo not shown) [Example 135], the chromatographic logP was 5.53 (A isomer) and 5.61 (B isomer).

The compound `CCON=C(COc1ccc(-c2ccc(C3COC(c4c(F)cccc4F)=N3)cc2)cc1)c1ccc(C)c(C)c1` (stereo not shown) [Example 190] had a chromatographic logP (A isomer) of 5.94 and a chromatographic logP (B isomer) of 5.62.

`Cc1cc(C(=O)COc2ccc(-c3ccc(C4COC(c5c(F)cccc5F)=N4)cc3)cc2)ccc1Cl` (stereo not shown) [Example 117]: the chromatographic logP came out at 4.86.

`CC(=O)C(C)Oc1ccc(-c2ccc(C3COC(c4ccccc4Cl)=N3)cc2)cc1Cl` (stereo not shown) [Example 113]: the chromatographic logP stood at 4.51.

As to `CON=C(COc1ccc(-c2ccc(C3COC(c4c(F)cccc4F)=N3)cc2)cc1)c1ccc(C(F)F)cc1` (stereo not shown) [Example 138], the chromatographic logP is, setting by setting: (A isomer) 4.78; (B isomer) 4.98.

Regarding `CCON=C(COc1ccc(-c2ccc(C3COC(c4c(F)cccc4F)=N3)cc2)cc1)c1ccc(Cl)cc1` (stereo not shown) [Example 131], the chromatographic logP by setting is: (A isomer) 5.61; (B isomer) 5.54.

On to `CON=C(C)COc1ccc(-c2ccc(C3COC(c4c(F)cccc4F)=N3)cc2)cc1Cl` (stereo not shown) [Example 86], for which the chromatographic logP is, setting by setting: (A isomer) 4.79; (B isomer) 4.7.

`CON=C(c1cccc(C(F)(F)F)c1)C(C)Oc1ccc(-c2ccc(C3COC(c4c(F)cccc4F)=N3)cc2)cc1` (stereo not shown) [Example 106] gave a chromatographic logP of 5.5.

With `CC(COc1ccc(-c2ccc(C3COC(c4ccccc4Cl)=N3)cc2)cc1)=NOCc1ccccc1` (stereo not shown) [Example 137], the chromatographic logP reads like this: (A isomer) 5.55; (B isomer) 5.62.

As to `CCC(Oc1ccc(-c2ccc(C3COC(c4c(F)cccc4F)=N3)cc2)cc1)C(=O)OC` (stereo not shown) [Example 19], the chromatographic logP was 4.18.

Consider `CO/N=C(/COc1ccc(-c2ccc(C3COC(c4c(F)cccc4F)=N3)cc2)cc1)C1CC1` (stereo not shown) [Example 24], for which the chromatographic logP (E isomer) worked out at 4.9.

Compound `CCON=C(C)C(C)(C)Oc1ccc(-c2ccc(C3COC(c4c(F)cccc4F)=N3)cc2)cc1` (stereo not shown) [Example 99] had a chromatographic logP of 5.57.

As to `CON=C(COc1ccc(-c2ccc(C3COC(c4c(F)cccc4F)=N3)cc2)cc1)c1ccc(Cl)c(C)c1` (stereo not shown) [Example 140], the chromatographic logP reads like this: (A isomer) 5.57; (B isomer) 5.88.

Regarding `CC(=NOC(C)C)C(C)Oc1ccc(-c2ccc(C3COC(c4ccccc4Cl)=N3)cc2)cc1Cl` (stereo not shown) [Example 145], the chromatographic logP (A isomer) was determined as 6.3 and the chromatographic logP (B isomer) came to 6.44.

`C=CCON=C(C)COc1ccc(-c2ccc(C3COC(c4c(F)cccc4Cl)=N3)cc2)cc1` (stereo not shown) [Example 125]: the chromatographic logP runs as follows: (A isomer) 5.04; (B isomer) 5.11.

Regarding `CCON=C(COc1ccc(-c2ccc(C3COC(c4c(F)cccc4F)=N3)cc2)cc1)c1cccc(Cl)c1` (stereo not shown) [Example 116], the chromatographic logP runs as follows: (A isomer) 5.89; (B isomer) 5.54.

The compound `O=C(COc1ccc(-c2ccc(C3COC(c4c(F)cccc4Cl)=N3)cc2)cc1)c1ccccc1` (stereo not shown) [Example 93] had a chromatographic logP of 4.28.

For `CC(COc1ccc(-c2ccc(C3COC(c4c(F)cccc4Cl)=N3)cc2)cc1)=NOCc1ccccc1` (stereo not shown) [Example 126], the chromatographic logP stood at 5.45 (A isomer) and 5.53 (B isomer).

The compound `CCOC(CCOc1ccc(-c2ccc(C3COC(c4c(F)cccc4F)=N3)cc2)cc1Cl)OCC` (stereo not shown) [Example 97] yielded a chromatographic logP of 5.12.

Turning to `CON=C(COc1ccc(-c2ccc(C3COC(c4c(F)cccc4F)=N3)cc2)cc1)c1ccc(OC(F)(F)C(F)F)cc1` (stereo not shown) [Example 157], the chromatographic logP reads like this: (A isomer) 5.28; (B isomer) 5.04.

Turning to `CC(=O)C(C)(C)Oc1ccc(-c2ccc(C3COC(c4c(F)cccc4Cl)=N3)cc2)cc1` (stereo not shown) [Example 151], the chromatographic logP stood at 4.48.
